Earlier results on 3 compounds are cited in patent US20110082867A1, “SYSTEM, METHOD, AND COMPUTER PROGRAM PRODUCT FOR ANALYZING DRUG INTERACTIONS” (priority 2009, published 2011).

One data set addresses CYP 2E1 (Homo sapiens, UniProt P05181). To be noted: Gene CYP 2E1; involvement strength and type.
The next data set has as its target T1, CYP 2A6 (Homo sapiens, UniProt P11509).
T1 sequence (P11509 1-494): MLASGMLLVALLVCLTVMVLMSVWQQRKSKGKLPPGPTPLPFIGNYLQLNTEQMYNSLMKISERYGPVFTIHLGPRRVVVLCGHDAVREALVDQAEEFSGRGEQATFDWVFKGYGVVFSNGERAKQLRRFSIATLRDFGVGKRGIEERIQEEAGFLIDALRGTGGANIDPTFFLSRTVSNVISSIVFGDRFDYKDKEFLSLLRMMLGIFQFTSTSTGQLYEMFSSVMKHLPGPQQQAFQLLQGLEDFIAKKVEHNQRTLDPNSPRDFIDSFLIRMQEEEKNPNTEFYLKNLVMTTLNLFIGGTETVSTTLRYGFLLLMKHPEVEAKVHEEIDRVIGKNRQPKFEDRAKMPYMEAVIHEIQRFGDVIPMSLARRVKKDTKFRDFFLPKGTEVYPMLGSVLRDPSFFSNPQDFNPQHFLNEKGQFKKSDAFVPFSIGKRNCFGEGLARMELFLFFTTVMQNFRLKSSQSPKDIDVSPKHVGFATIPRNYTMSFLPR
To be noted: Gene CYP 2A6; involvement strength and type.

For the next data set, the target named is T2, CYP 1A2 (Homo sapiens, UniProt P05177).
T2 sequence (P05177 1-516): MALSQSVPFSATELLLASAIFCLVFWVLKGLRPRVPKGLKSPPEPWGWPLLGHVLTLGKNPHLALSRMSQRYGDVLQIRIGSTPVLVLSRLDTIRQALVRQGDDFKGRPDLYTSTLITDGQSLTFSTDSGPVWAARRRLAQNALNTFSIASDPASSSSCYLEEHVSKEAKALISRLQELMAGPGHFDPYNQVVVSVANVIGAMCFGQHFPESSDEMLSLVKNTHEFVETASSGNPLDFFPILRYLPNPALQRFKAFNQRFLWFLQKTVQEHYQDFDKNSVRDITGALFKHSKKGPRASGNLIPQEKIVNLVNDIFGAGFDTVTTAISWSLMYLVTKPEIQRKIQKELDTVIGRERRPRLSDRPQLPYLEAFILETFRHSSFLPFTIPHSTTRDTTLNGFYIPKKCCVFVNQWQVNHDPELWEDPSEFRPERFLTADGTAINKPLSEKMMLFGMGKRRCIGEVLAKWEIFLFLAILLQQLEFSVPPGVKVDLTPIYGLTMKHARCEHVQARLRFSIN
As to conditions: Gene CYP 1A2; involvement strength and type.

The next data set addresses CYP 3A4 (Homo sapiens, UniProt P08684). As to conditions: Gene CYP 3A4; involvement strength and type.
For a further data set, the target named is CYP 2D6 (Homo sapiens, UniProt P10635). To be noted: Gene CYP 2D6; involvement strength and type.
The next data set concerns the target CYP 2C9 (Homo sapiens, UniProt P11712). To be noted: Gene CYP 2C9; involvement strength and type.

Sequence of CYP 2D6 (P10635 whole entry): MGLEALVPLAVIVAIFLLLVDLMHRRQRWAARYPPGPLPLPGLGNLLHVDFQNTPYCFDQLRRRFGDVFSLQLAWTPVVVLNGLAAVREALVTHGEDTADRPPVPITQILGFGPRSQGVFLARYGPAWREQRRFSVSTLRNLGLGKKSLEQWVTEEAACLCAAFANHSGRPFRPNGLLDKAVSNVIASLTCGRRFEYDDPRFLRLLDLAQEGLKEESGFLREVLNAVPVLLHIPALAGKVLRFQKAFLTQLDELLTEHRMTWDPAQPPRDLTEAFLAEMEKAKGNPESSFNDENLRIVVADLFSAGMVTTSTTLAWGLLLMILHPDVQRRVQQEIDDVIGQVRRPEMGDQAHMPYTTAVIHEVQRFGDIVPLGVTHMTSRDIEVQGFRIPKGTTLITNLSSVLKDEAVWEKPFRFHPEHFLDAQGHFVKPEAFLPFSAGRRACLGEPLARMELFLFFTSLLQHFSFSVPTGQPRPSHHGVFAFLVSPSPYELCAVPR
Sequence of CYP 2E1 (P05181 whole entry): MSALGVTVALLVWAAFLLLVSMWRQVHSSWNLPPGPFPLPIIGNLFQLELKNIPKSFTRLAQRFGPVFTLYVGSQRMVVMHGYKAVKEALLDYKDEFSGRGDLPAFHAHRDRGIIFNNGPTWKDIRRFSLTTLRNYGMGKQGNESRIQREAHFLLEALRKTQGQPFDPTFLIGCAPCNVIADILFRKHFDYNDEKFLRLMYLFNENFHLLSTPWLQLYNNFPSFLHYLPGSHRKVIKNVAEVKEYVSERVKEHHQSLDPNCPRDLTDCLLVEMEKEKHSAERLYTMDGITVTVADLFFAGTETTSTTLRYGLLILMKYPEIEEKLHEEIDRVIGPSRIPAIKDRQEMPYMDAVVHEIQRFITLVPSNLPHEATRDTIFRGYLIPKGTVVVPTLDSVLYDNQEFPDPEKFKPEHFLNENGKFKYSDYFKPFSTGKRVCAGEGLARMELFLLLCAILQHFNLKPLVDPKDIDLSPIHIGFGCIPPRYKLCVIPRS
Sequence of CYP 2C9 (P11712 whole entry): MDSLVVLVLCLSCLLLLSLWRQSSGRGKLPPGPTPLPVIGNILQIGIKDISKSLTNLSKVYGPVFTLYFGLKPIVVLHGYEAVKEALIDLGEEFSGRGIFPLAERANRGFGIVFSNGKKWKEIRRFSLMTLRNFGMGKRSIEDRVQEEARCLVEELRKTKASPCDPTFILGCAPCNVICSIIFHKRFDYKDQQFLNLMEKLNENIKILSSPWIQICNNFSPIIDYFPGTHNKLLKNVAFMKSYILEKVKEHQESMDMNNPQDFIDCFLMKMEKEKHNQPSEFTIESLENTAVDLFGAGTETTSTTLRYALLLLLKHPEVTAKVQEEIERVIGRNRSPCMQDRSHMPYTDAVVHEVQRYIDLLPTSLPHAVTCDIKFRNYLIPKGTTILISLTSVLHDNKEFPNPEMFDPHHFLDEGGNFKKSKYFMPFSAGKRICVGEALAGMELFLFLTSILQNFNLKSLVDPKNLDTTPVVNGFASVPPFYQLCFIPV
Sequence of CYP 3A4 (P08684 whole entry): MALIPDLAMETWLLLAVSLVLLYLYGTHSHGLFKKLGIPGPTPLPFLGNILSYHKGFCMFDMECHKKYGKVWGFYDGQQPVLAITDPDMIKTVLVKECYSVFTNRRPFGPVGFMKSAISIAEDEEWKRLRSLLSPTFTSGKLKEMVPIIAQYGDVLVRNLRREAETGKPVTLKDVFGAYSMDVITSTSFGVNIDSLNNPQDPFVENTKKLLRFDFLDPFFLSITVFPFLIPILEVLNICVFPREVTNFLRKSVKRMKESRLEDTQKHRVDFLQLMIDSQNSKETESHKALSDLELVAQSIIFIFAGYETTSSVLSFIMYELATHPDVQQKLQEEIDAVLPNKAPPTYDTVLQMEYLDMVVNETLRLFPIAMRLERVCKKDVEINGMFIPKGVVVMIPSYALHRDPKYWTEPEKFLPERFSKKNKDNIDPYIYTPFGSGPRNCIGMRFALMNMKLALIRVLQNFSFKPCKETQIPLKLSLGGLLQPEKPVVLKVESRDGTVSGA

On to `CC(=O)Nc1ccc(O)cc1` [Acetaminophen], for which the “Drug Interaction” value at CYP 2E1 is reported as “Major Substrate”; on CYP 2A6, “Minor Substrate”; at CYP 1A2, “Minor Substrate”; on CYP 3A4, “Minor Substrate”; at CYP 2D6, “Minor Substrate”.
For `COc1ccc2c3c1O[C@H]1[C@@H](O)C=C[C@H]4[C@@H](C2)N(C)CC[C@@]341` [Codeine], at CYP 2D6, the “Drug Interaction” value is reported as “Major Substrate”.
Take `CC(=O)CC(c1ccccc1)c1c(O)c2ccccc2oc1=O` (stereo not shown) [Warfarin]: on CYP 2C9, the “Drug Interaction” value is on record as “Major Substrate”.
